Nc1nc(Cl)cc(Cl)n1
solubility (mole fraction)
Conditions	in 1,4-dioxane	in acetone	in acetonitrile	in cyclohexane	in ethanol	in ethyl acetate	in isopropanol	in methanol	in n-propanol	in toluene
278.15 K	–	0.00538	0.00128	–	0.000929	0.00458	0.000517	0.00113	0.000792	0.000551
283.15 K	–	0.00618	0.00155	4.26e-05	0.00111	0.00535	0.000645	0.00132	0.00095	0.000695
288.15 K	0.0122	0.0073	0.00186	5.55e-05	0.00132	0.00631	0.000808	0.00158	0.00113	0.000856
293.15 K	0.0139	0.00848	0.00223	7.15e-05	0.00158	0.0073	0.000989	0.00183	0.00136	0.00105
298.15 K	0.016	0.0097	0.00265	9.05e-05	0.00183	0.00847	0.00121	0.00218	0.00163	0.00128
303.15 K	0.0182	0.011	0.00314	0.000115	0.00215	0.00981	0.00148	0.00251	0.00192	0.00156
308.15 K	0.0205	0.0126	0.0037	0.000144	0.00251	0.0113	0.00178	0.00293	0.00226	0.00188
313.15 K	0.0233	0.0143	0.00434	0.000181	0.00293	0.0129	0.00215	0.00335	0.00265	0.00228
318.15 K	0.0262	0.0163	0.00505	0.000224	0.00339	0.0147	0.00257	0.00389	0.00313	0.00274

Reference: BigSolDB 2.1
